Experiments:
Assay type in all cases: cell-based, mouse
67NR cells = experiment: Binding of FITC-tagged CAIX inhibitor to cells (epifluorescence), 67NR cells; conditions: hypoxia 72 hours, 10 μM
Protocol: (§1) CAI 17 was a generous gift from Dr. Claudiu Supuran (University of Florence, Florence, Italy). The chemical properties of this sulfonamide have been previously described^20,34. The sulfonamide was dissolved in 100% DMSO, stored at −80° C. and diluted into culture medium just prior to application. Subconfluent cell monolayers were incubated with CAI 17 for 72 hours in normoxia or hypoxia, washed 3× in PBS and imaged using a Ziess Axioplan epifluorescence microscope.
(§2) FIG. 4, part d, depicts localization of the fluorescent CAIX inhibitor, CAI 17, on cells. To determine whether the acidification was CAIX-dependent, cells were treated with a highly specific CAIX inhibitor (compound 17 or “CAI 17”)^20. Cells were incubated in normoxia or hypoxia for 72 hours in the presence of CAI 17 at a concentration of 10 μM. Shown are representative images of the FITC-tagged inhibitor bound to the cells under the indicated experimental conditions. Data were similar in 3 independent experiments.

4T1 cells [1] = experiment: Binding of FITC-tagged CAIX inhibitor to cells (epifluorescence), 4T1 cells; conditions: hypoxia 72 hours, 10 μM
Protocol: as §1, §2

66cl4 cells [2] = experiment: Binding of FITC-tagged CAIX inhibitor to cells (epifluorescence), 66cl4 cells; conditions: hypoxia 72 hours, 10 μM
Protocol: as §1, §2

66cl4 cells [3] = experiment: Measurement of extracellular pH of culture medium, 66cl4 cells; conditions: hypoxia 72 hours, CAI 17 600 μM
Protocol: (§3) The acquisition, generation and culture of the mouse breast cancer cell lines 4T1, 66cl4 and 67NR have been described previously^11. These 3 cell lines stably express a luciferase reporter^11 and were cultured routinely in DMEM supplemented with 10% FBS, non-essential amino acids and […] puromycin. Incubation in normoxia was carried out in a humidified atmosphere of 5% CO2 and 95% air at 37° C. Cells were maintained in conditions of hypoxia (1% O2 and 5% CO2 balanced with N2) at 37° C. in a humidified incubator positioned in a sealed anaerobic workstation.
(§4) Cells were plated in 60 mm dishes and allowed to recover for 24 hours. Growth medium was then replaced with a standard 3 ml volume of fresh media and cells were incubated in normoxia or hypoxia for 72 hours. Spent media was collected in 15 ml conical tubes, maintained at 37° C. and pH was measured immediately using a digital pH meter. Triplicate plates were run for each condition and results were averaged. Cell layers were kept on ice and were harvested for qRT-PCR and Western blot analysis.
CAI 17 was a generous gift from Dr. Claudiu Supuran (University of Florence, Florence, Italy). The chemical properties of this sulfonamide have been previously described^20,34. […]
(§5) Data are expressed as the mean change in extracellular pH±s.e.m. of triplicate samples and are representative of 3 independent experiments. […]

4T1 cells [4] = experiment: Measurement of extracellular pH of culture medium, 4T1 cells; conditions: hypoxia 72 hours, CAI 17 400 μM
Protocol: as §3
as §4, with “analysis. […]” for “analysis.”
as §5
Data are expressed as the mean change in extracellular pH±s.e.m. and are representative of 2 independent experiments (each n=3).

SMILES: NS(=O)(=O)c1ccc(CCNC(=S)Nc2ccc(-c3c4ccc(=O)cc-4oc4cc(O)ccc34)c(C(=O)O)c2)cc1 [CAI 17]
- binding of FITC-tagged inhibitor to cell surfaces (67NR cells): not
- binding of FITC-tagged inhibitor to cell surfaces (4T1 cells [1]): binds to the cell surfaces
- binding of FITC-tagged inhibitor to cell surfaces (66cl4 cells [2]): binds to the cell surfaces
- acidification of the extracellular medium under hypoxia (66cl4 cells [3]): reversed acidification of the extracellular medium
- acidification of the extracellular medium under hypoxia (4T1 cells [4]): reversed acidification of the extracellular medium
